“Also recorded” adds a separate entry of the source.
Experiments:
ClC-1 exon 7a = assay: RT-PCR of ClC-1 exon 7a splicing after ClC-1 antisense morpholino, HSA^LR mice; format: in vivo; conditions: TA muscle; for comparison of exon 7a skipping between antisense morpholinos: 3 weeks, 20 μg total
Method: (§1) FIGS. 21A, 21B, 21C, and 21D show the effects of antisense morpholino targeting the 3′ splice junction of ClC-1 exon 7a on splicing and myotonia in HSA^LR transgenic mice. Antisense morpholino targeting the 3′ splice junction of ClC-1 exon 7a was injected into tibialis anterior muscle of HSA^LR mice under general anesthesia (sequence 5′-[…]-3′ (SEQ ID NO: 4)). The contralateral muscle was injected with morpholino having the inverted sequence (5′-[…]-3′(SEQ ID NO: 5)). Uptake into muscle fibers was enhanced by in vivo electroporation. The determination of which side received the antisense morpholino was randomized. 21 days later, myotonia was evaluated by electromyography and muscle was harvested for RT-PCR analysis of ClC-1 alternative splicing. Electromyography was blinded to the randomization.
(§2) HSA^LR (Mankodi, A., et al. (2000) Science 289:1769-1773) or Mbnl1^ΔE3/ΔE3 mice (Kanadia, R. N., et al. (2003) Science 302:1978-1980) were anesthetized by intraperitoneal injection of 100 mg/kg ketamine, 10 mg/kg xylazine, and 3 mg/kg acepromazine. TA muscle was pretreated by intramuscular injection of bovine hyaluronidase (15 μl, 0.4 U/μl) (Sigma) (McMahon, J. M., et al. (2001) Gene Ther 8:1264-1270). Two hours later, 10 or 20 μg of morpholino in a total volume of 20 μl phosphate buffered saline (PBS) was injected using a 30-gauge needle. TA muscle was then electroporated using electrodes placed parallel to the long axis of the muscle. Electroporation parameters were 100 V/cm, 10 pulses at 1 Hz, and 20 ms duration per pulse. Antisense or control morpholino with inverted sequence was injected into TA muscles of opposite limbs. The determination of which TA received antisense morpholino was randomized, and investigators remained blinded to this assignment until EMG analyses were completed. Other analyses were performed without blinding. For experiments to determine the distribution of injected oligos, the antisense morpholino was labeled with carboxyfluorescein and cryosections of muscle (10 μM) were examined by fluorescence microscopy, with or without fixation in 4% paraformaldehyde. Some sections were co-labeled with TRITC-wheat germ agglutinin (Parsons, S. A., et al. (2003) Mol Cell Biol 23:4331-4343) (50 μg/ml in PBS; Sigma) and 4′,6-diamidino-2-phenylindole (DAPI) to highlight the surface membranes and nuclei of muscle fibers.
Mice were sacrificed three or eight weeks after morpholino injection. TA muscles were removed and frozen in liquid nitrogen. Total RNA was isolated with TriReagent (Molecular Research Center). cDNA synthesis was primed with oligo dT as described previously (Mankodi, A., et al. (2002) Mol Cell 10:35-44). Assays for alternative splicing of ClC-1 and Titin were described previously (Mankodi, A., et al. (2002) Mol Cell 10:35-44; Lin, X., et al. (2006) Hum Mol Genet 15:2087-2097). Primer sequences were
(§3) RT-PCR products (22 cycles) were separated on agarose gels, stained with SYBR green II, and scanned on a laser fluorimager (Molecular Dynamics). Band intensity was quantified using ImageQuant software. Total levels of ClC-1 mRNA were determined by quantitative real-time RT-PCR (Taqman, Applied Biosystems) relative to housekeeping gene RNA polymerase II transcription factor IIB.

ClC-1 mRNA = assay: Quantitative real time RT-PCR of ClC-1 mRNA level; format: in vivo, HSA^LR mice; conditions: 3 weeks after treatment, relative to RNA polymerase II transcription factor IIB
Source text: HSA^LR and WT mice have the same (FVB) inbred strain background. […] FIGS. 25D and 25E show the percentage of ClC-1 splice products that include exon 7a is shown at 3 (D) and 8 (E) weeks following morpholino injection. Mean±s.d.; n=3 per group; **P<0.001; *P=0.035 antisense- versus invert-treated controls; t-test. […] ClC-1 mRNA level is expressed in arbitrary units relative to housekeeping gene RNA polymerase II transcription factor IIB. Mean±s.d.; n=3 per group; *P=0.06 for antisense vs invert-treated control; t-test.
as §3

HSA^LR mice = assay: Electromyography of myotonia after ClC-1 antisense morpholino, HSA^LR mice; format: in vivo; conditions: TA muscle
Method: as §1, with “21 days later, myotonia was evaluated by electromyography and muscle was harvested for RT-PCR analysis of ClC-1 alternative splicing.” left out
as §2
EMG was performed under general anesthesia as described previously (Kanadia, R. N., et al. (2003) Science 302:1978-1980). Images and video recordings of electromyographic myotonia in HSA^LR and Mbnl1^ΔE3/ΔE3 mice are shown in previous reports (Kanadia, R. N., et al. (2003) Science 302:1978-1980; Mankodi, A., et al. (2000) Science 289:1769-1773). […]

Mbnl1^ΔE3/ΔE3 mice = assay: Electromyography of myotonia, Mbnl1^ΔE3/ΔE3 mice; format: in vivo; conditions: TA muscle, 3 weeks
Method: FIGS. 27A, 27B, 27C, 27D, and 27E show antisense morpholino represses exon 7a inclusion, restores ClC-1 protein expression, and rescues myotonia in Mbnl1^ΔE3/ΔE3 mice. […] Bar=20 μM. […] Mean±s.d.; n=3 per group; **P<0.0001 antisense- versus invert-treated control; ANOVA.
EMG was performed under general anesthesia as described previously (Kanadia, R. N., et al. (2003) Science 302:1978-1980). Images and video recordings of electromyographic myotonia in HSA^LR and Mbnl1^ΔE3/ΔE3 mice are shown in previous reports (Kanadia, R. N., et al. (2003) Science 302:1978-1980; Mankodi, A., et al. (2000) Science 289:1769-1773). A minimum of 15 needle insertions were performed for each muscle examined Myotonic discharges were graded on a 4 point scale: 0, no myotonia; 1, occasional myotonic discharge in <50% of needle insertions; 2, myotonic discharge in >50% of needle insertions; 3: myotonic discharge with nearly every insertion.

Row | Substance | ClC-1 exon 7a inclusion (ClC-1 exon 7a; 3 weeks (21 days) after single injection + electroporation, listed as antisense morpholino) | comparison of exon 7a skipping between antisense morpholinos (ClC-1 exon 7a) | comparison of exon 7a skipping between antisense morpholinos (ClC-1 exon 7a; listed as AON targeting the 3′ splice site) | ClC-1 exon 7a inclusion (ClC-1 exon 7a; 8 weeks after injection, 20 μg) | ClC-1 exon 7a inclusion (ClC-1 exon 7a; 8 weeks after injection, 20 μg, listed as antisense morpholino) | fraction of splice products encoding functional ClC-1 channels (band 1) (ClC-1 exon 7a; 21 days) | level of ClC-1 mRNA (ClC-1 mRNA; listed as antisense morpholino) | myotonia (EMG) (HSA^LR mice; 3 weeks (21 days) after injection, listed as antisense morpholino) | myotonia (EMG) (HSA^LR mice; 8 weeks after injection, listed as antisense morpholino) | myotonia (EMG) (Mbnl1^ΔE3/ΔE3 mice; listed as antisense morpholino) | ClC-1 exon 7a inclusion (ClC-1 exon 7a; 3 weeks (21 days) after single injection + electroporation) | level of ClC-1 mRNA (ClC-1 mRNA) | myotonia (EMG) (HSA^LR mice; 3 weeks (21 days) after injection) | myotonia (EMG) (HSA^LR mice; 8 weeks after injection) | myotonia (EMG) (Mbnl1^ΔE3/ΔE3 mice)
1 | antisense 1: morpholino 5′-CCAGGCACGGTCTGCAACAGAGAAG-3′ targeting the 3′ splice site of ClC-1 exon 7a (all phosphorodiamidate morpholino (PMO)) | significant reduction of exon 7a inclusion; also recorded: suppressed to wild type (WT) levels | higher level of exon 7a skipping | more effective than targeting the 5′ splice site alone | remained partially suppressed | partial exclusion of exon 7a | increases the fraction of splice products encoding functional ClC-1 channels | increased levels of ClC-1 mRNA | marked reduction of myotonia; also recorded: markedly reduced or absent; also recorded: significantly reduced | markedly reduced or absent; also recorded: significantly reduced | reduced the myotonia |  |  |  |  | 
2 | control morpholino: control morpholino 5′-GAAGAGACAACGTCTGGCACGGACC-3′, the 5′-3′ invert of the 3′ splice site blocker (all phosphorodiamidate morpholino (PMO)) [reference compound] |  |  |  |  |  |  |  |  |  |  | no effect on ClC-1 splicing; also recorded: not different from untreated HSA^LR muscle | not control morpholino with inverted sequence | not different from uninjected muscle | not different from uninjected muscle | not in muscle treated with invert control

— patent publication US9371527B2, “Compositions and methods related to protein displacement therapy for myotonic distrophy” (University of Rochester, priority 2006, dated 2016)
